Our source for the Activity, inhibition and inhibition in vivo values is ChEMBL document CHEMBL4346735, “Discovery and pharmacological evaluation of indole derivatives as potent and selective RORγt inverse agonist for multiple autoimmune conditions” (Bioorg Med Chem Lett, 2019).

The test system of assay [1] is Mus musculus. The experiment in a line: Immunosuppressive activity in MOG (35 to 55 residues)/pertussis toxin-induced experimental allergic encephalomyelitis C57BL/6J mouse model assessed as IFN-gamma production of CNS infiltrating CD4+ Th1 cells at 3 to 30 mg/kg, po bid by intracellular staining method. In kind it is functional, organism-based.
Assay [2] has as its target T1, Nuclear receptor ROR-gamma (Mus musculus) (UniProt P51450).
T1 sequence (whole entry): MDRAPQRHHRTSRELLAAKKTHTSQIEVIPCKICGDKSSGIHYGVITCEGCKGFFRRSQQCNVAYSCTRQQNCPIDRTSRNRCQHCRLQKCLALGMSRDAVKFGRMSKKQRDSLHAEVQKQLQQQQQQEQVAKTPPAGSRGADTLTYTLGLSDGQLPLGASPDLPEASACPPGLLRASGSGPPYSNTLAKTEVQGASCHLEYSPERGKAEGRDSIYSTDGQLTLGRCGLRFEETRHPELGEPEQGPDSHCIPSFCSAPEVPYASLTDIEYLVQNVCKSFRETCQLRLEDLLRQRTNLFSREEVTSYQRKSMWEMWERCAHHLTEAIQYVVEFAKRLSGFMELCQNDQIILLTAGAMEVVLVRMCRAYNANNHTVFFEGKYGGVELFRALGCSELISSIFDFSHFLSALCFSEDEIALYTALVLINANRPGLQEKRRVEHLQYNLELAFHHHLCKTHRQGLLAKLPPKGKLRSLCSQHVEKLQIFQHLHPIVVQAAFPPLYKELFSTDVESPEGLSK
In words: Transrepression of RORgammat in Balb/c mouse splenocytes assessed as inhibition of anti-CD3/anti-CD28 stimulated IL-17 gene expression at 30 uM measured after 24 hrs in presence of anti-CD3/anti-CD28. In kind it is cell-based.

Assay [3] concerns the target T1, Nuclear receptor ROR-gamma (Mus musculus). In words: Transrepression of RORgammat in Balb/c mouse splenocytes assessed as inhibition of anti-CD3/anti-CD28 stimulated IL-17 gene expression at 0.3 uM measured after 24 hrs in presence of anti-CD3/anti-CD28. In kind it is cell-based.
For assay [4], the species on record is Mus musculus. The experiment in a line: Effect on non-RORgammat-dependent il6 gene expression in BALB/c mouse splenocytes measured after 24 hrs in presence of anti-CD3/anti-CD28. In kind it is functional.
The target in assay [5] is T1, Nuclear receptor ROR-gamma (Mus musculus). The experiment in a line: Transrepression of RORgammat in Balb/c mouse splenocytes assessed as inhibition of anti-CD3/anti-CD28 stimulated IL-17 gene expression at 3 uM measured after 24 hrs in presence of anti-CD3/anti-CD28. In kind it is cell-based.
In assay [6] the test system is Mus musculus. In words: Immunosuppressive activity in MOG (35 to 55 residues)/pertussis toxin-induced experimental allergic encephalomyelitis C57BL/6J mouse model assessed as delay in disease onset at 3 to 30 mg/kg, po bid. In kind it is functional, organism-based.
The test system of assay [7] is Mus musculus. The experiment in a line: Immunosuppressive activity in MOG (35 to 55 residues)/pertussis toxin-induced experimental allergic encephalomyelitis C57BL/6J mouse model assessed as decrease in ratio of Th17:Th1 at 3 to 30 mg/kg, po bid by intracellular staining method. In kind it is functional, organism-based.
The species entered for assay [8] is Mus musculus. In words: Effect on non-RORgammat-dependent ll4 gene expression in BALB/c mouse splenocytes measured after 24 hrs in presence of anti-CD3/anti-CD28. In kind it is functional.
For assay [9], the species on record is Mus musculus. In words: Effect on non-RORgammat-dependent IFNG gene expression in BALB/c mouse splenocytes measured after 24 hrs in presence of anti-CD3/anti-CD28. In kind it is functional.
In assay [10] the test system is Mus musculus. The experiment in a line: Immunosuppressive activity in MOG (35 to 55 residues)/pertussis toxin-induced experimental allergic encephalomyelitis C57BL/6J mouse model assessed as reduction in disease severity at 3 to 30 mg/kg, po bid measured at days 15-19. In kind it is functional, organism-based.
The species named for assay [11] is Mus musculus. The experiment in a line: Effect on non-RORgammat-dependent TNFA gene expression in BALB/c mouse splenocytes measured after 24 hrs in presence of anti-CD3/anti-CD28. In kind it is functional.
For assay [12], the system named is Mus musculus. The experiment in a line: Immunosuppressive activity in MOG (35 to 55 residues)/pertussis toxin-induced experimental allergic encephalomyelitis C57BL/6J mouse model assessed as reduction in disease severity score at 15 mg/kg, po bid measured at day 23 relative to dexamethasone. In kind it is functional. The settings on record: 552 h.
In assay [13] the test system is Mus musculus. In words: Inhibition of anti-CD3-induced IL-17A level in Balb/c mouse plasma at 5 mg/kg, po treated prior to stimulation with anti-CD3 for 3 hrs relative to control. In kind it is functional.

The source made the active and inactive calls. The calls are words filed in the database; no cut-off is given here.

Usually inhibition stands for the share of the control response that was lost under treatment. Consider `O=C(O)c1ccc(-n2cc(C(=O)c3c(Cl)cccc3Cl)c3cccc(F)c32)cc1`, for which the outcome in assay [1], in [6] and in [10] was Active. For the same compound, the inhibition in assay [2] stood at 76%; in assay [3], 2%; in [5], 52%. Also, the result in [4], in [8], in assay [9] and in assay [11] was inactive. In addition, in assay [7], the inhibition result is “Active”.
In general, inhibition in vivo refers to how much of the control response was suppressed. Turning to `C[S+](C)[O-]` [DIMETHYL SULFOXIDE], the inhibition in vivo at 15 mg/kg in [12] stood at 15%.
As for `C[C@@H]1C[C@H]2[C@@H]3CCC4=CC(=O)C=C[C@]4(C)[C@@]3(F)[C@@H](O)C[C@]2(C)[C@@]1(O)C(=O)CO` [DEXAMETHASONE], 5 mg/kg produced 51% inhibition in vivo in assay [13].
